Experiments:
[1] = test system: Phakopsora pachyrhizi (strain containing the amino acid substitution F129L in the mitochondrial cytochrome b protein); assay: Use example 2: protective control of soybean rust on soybeans (PHAKPA P6), inoculation six days after spraying; assay type: in vivo; settings: % diseased leaf area on soybean, 16 ppm spray, inoculation six days after treatment, untreated controls usually >85 %
Protocol: (§1) The compound was dissolved in a mixture of acetone and/or dimethylsulfoxide and the wetting agent/emulsifier Wettol, which is based on ethoxylated alkylphenoles, in a ratio (volume) solvent-emulsifier of 99 to 1 to give a total volume of 5 ml. Subsequently, water was added to total volume of 100 ml. This stock solution was then diluted with the described solvent-emulsifier-water mixture to the final concentration given in the table below.
Use example 2. Protective control of soybean rust on soybeans caused by Phakopsora pachyrhizi (PHAKPA P6)
(§2) Leaves of potted soybean seedlings were sprayed to run-off with the previously described spray solution, containing the concentration of active ingredient as described below. The plants were allowed to air-dry. The trial plants were cultivated for six days in a greenhouse chamber at 23-27° C. and a relative humidity between 60 and 80 %. Then the plants were inoculated with spores of Phakopsora pachyrhizi. The strain used contains the amino acid substitution F129L in the mitochondrial cytochrome b protein conferring resistance to Qo inhibitors. To ensure the success the artificial inoculation, the plants were transferred to a humid chamber with a relative humidity of about 95 % and 23 to 27° C. for 24 hr. The trial plants were cultivated for up to 14 days in a greenhouse chamber at 23 to 27° C. and a relative humidity between 60 and 80 %. The extent of fungal attack on the leaves was visually assessed as % diseased leaf area, the disease level of untreated controls was usually higher than 85 %.
(§3) All test results below are given for the control of phytopathogenic fungi containing the amino acid substitution F129L in the mitochondrial cytochrome b protein conferring resistance to Qo inhibitors.

[2] = test system: Phakopsora pachyrhizi (strain containing the amino acid substitution F129L in the mitochondrial cytochrome b protein); assay: Use example 1: protective control of soybean rust on soybeans (PHAKPA P2), inoculation 2 days after spraying; assay type: in vivo; settings: % diseased leaf area on soybean, 16 ppm spray, inoculation 2 days after treatment, untreated controls usually >85 %
Protocol: as §1
Use example 1. Protective control of soybean rust on soybeans caused by Phakopsora pachyrhizi (PHAKPA P2)
as §2, with “active ingredient or their mixture as described” for “active ingredient as described”, “cultivated for 2 days in” for “cultivated for six days in”, “% and 20 to 24°” for “% and 23 to 27°”, “20 to 24° C. for” for “23 to 27° C. for”
as §3

CO/N=C(/C(=O)OC)c1cccc(C)c1CO/N=C(\C)C#Cc1ccc(OC(F)(F)F)cc1 [Example 22, methyl (2E)-2-methoxyimino-2-[3-methyl-2-[[(E)-[1-methyl-3-[4-(trifluoromethoxy)-phenyl]prop-2-ynylidene]amino]oxymethyl]phenyl]acetate]
PHAKPA Disease level (%) P6 at 16 ppm [1]: 97%
PHAKPA Disease level (%) P2 at 16 ppm [2]: 93%

CO/C=C(/C(=O)OC)c1cccc(C)c1CO/N=C(\C)C#Cc1ccc(F)c(C(=O)OC)c1 [Example 122]
PHAKPA Disease level (%) P6 at 16 ppm [1]: 60%
PHAKPA Disease level (%) P2 at 16 ppm [2]: 73%

CO/N=C(/C(=O)OC)c1cccc(C)c1CO/N=C(\C)C#Cc1ccccc1F [Example 61]
PHAKPA Disease level (%) P6 at 16 ppm [1]: 8%
PHAKPA Disease level (%) P2 at 16 ppm [2]: 8%

CNC(=O)/C(=N/OC)c1ccccc1CO/N=C(\C)C#Cc1ccc(Cl)cc1F [Example 83]
PHAKPA Disease level (%) P6 at 16 ppm [1]: 22%
PHAKPA Disease level (%) P2 at 16 ppm [2]: 17%

CNC(=O)/C(=N/OC)c1ccccc1CO/N=C(\C)C#Cc1c(Cl)cccc1Cl [Example 107]
PHAKPA Disease level (%) P6 at 16 ppm [1]: 15%
PHAKPA Disease level (%) P2 at 16 ppm [2]: 27%

CNC(=O)/C(=N/OC)c1cccc(C)c1CO/N=C(\C)C#Cc1ccccc1OC(F)(F)F [Example 25]
PHAKPA Disease level (%) P6 at 16 ppm [1]: 0%
PHAKPA Disease level (%) P2 at 16 ppm [2]: 0%

CO/C=C(/C(=O)OC)c1cccc(C)c1CO/N=C(\C)C#Cc1ccc(F)cc1 [Example 70]
PHAKPA Disease level (%) P6 at 16 ppm [1]: 0%
PHAKPA Disease level (%) P2 at 16 ppm [2]: 0%

CNC(=O)/C(=N/OC)c1ccccc1CO/N=C(\C)C#Cc1ccc(OC(F)(F)F)cc1 [Example 11, (2E)-2-Methoxyimino-N-methyl-2-[2-[[(E)-[1-methyl-3-[4-(trifluoromethoxy)phenyl]-prop-2-ynylidene]amino]oxymethyl]phenyl]acetamide]
PHAKPA Disease level (%) P6 at 16 ppm [1]: 67%
PHAKPA Disease level (%) P2 at 16 ppm [2]: 53%

CO/C=C(/C(=O)OC)c1ccccc1CO/N=C(\C)C#Cc1ccc(F)cc1 [Example 114]
PHAKPA Disease level (%) P6 at 16 ppm [1]: 0%
PHAKPA Disease level (%) P2 at 16 ppm [2]: 0%

CO/N=C(/C(=O)OC)c1ccccc1CO/N=C(\C)C#Cc1cccc(C)c1 [Example 43]
PHAKPA Disease level (%) P6 at 16 ppm [1]: 27%
PHAKPA Disease level (%) P2 at 16 ppm [2]: 40%

CO/N=C(/C(=O)OC)c1ccccc1CO/N=C(\C)C#Cc1c(Cl)cccc1Cl [Example 93]
PHAKPA Disease level (%) P6 at 16 ppm [1]: 97%
PHAKPA Disease level (%) P2 at 16 ppm [2]: 87%

CO/N=C(/C(=O)OC)c1cccc(C)c1CO/N=C(\C)C#Cc1ccc(Cl)cc1 [Example 32]
PHAKPA Disease level (%) P6 at 16 ppm [1]: 35%
PHAKPA Disease level (%) P2 at 16 ppm [2]: 12%

CNC(=O)/C(=N/OC)c1cccc(C)c1CO/N=C(\C)C#Cc1ccc(Br)cc1 [Example 59]
PHAKPA Disease level (%) P6 at 16 ppm [1]: 28%
PHAKPA Disease level (%) P2 at 16 ppm [2]: 13%

CO/N=C(/C(=O)OC)c1ccccc1CO/N=C(\C)C#Cc1ccc(OCC(F)(F)F)cc1 [Example 98]
PHAKPA Disease level (%) P6 at 16 ppm [1]: 93%
PHAKPA Disease level (%) P2 at 16 ppm [2]: 73%

CNC(=O)/C(=N/OC)c1ccccc1CO/N=C(\C)C#Cc1ccc(Cl)cc1C(F)(F)F [Example 99]
PHAKPA Disease level (%) P6 at 16 ppm [1]: 0%
PHAKPA Disease level (%) P2 at 16 ppm [2]: 0%

CNC(=O)/C(=N/OC)c1cccc(C)c1CO/N=C(\C)C#Cc1ccccc1 [Example 16, (2E)-2-Methoxyimino-N-methyl-2-[3-methyl-2-[[(E)-(1-methyl-3-phenyl-prop-2-ynylidene)amino]oxymethyl]phenyl]acetamide]
PHAKPA Disease level (%) P6 at 16 ppm [1]: 0%
PHAKPA Disease level (%) P2 at 16 ppm [2]: 0%

CO/N=C(/C(=O)OC)c1cccc(C)c1CO/N=C(\C)C#Cc1cccc(Cl)c1 [Example 72]
PHAKPA Disease level (%) P6 at 16 ppm [1]: 8%
PHAKPA Disease level (%) P2 at 16 ppm [2]: 7%

CO/N=C(/C(=O)OC)c1cccc(C)c1CO/N=C(\C)C#Cc1cccc(C(F)(F)F)c1 [Example 39]
PHAKPA Disease level (%) P6 at 16 ppm [1]: 1%
PHAKPA Disease level (%) P2 at 16 ppm [2]: 2%

CNC(=O)/C(=N/OC)c1ccccc1CO/N=C(\C)C#Cc1cccc(C(F)(F)F)c1 [Example 44]
PHAKPA Disease level (%) P6 at 16 ppm [1]: 5%
PHAKPA Disease level (%) P2 at 16 ppm [2]: 1%

CO/N=C(/C(=O)OC)c1ccccc1CO/N=C(\C)C#Cc1ccc(Oc2ccc(F)cc2)cc1 [Example 100]
PHAKPA Disease level (%) P6 at 16 ppm [1]: 77%
PHAKPA Disease level (%) P2 at 16 ppm [2]: 77%

CNC(=O)/C(=N/OC)c1ccccc1CO/N=C(\C)C#Cc1ccc(Oc2ccc(F)cc2)cc1 [Example 111]
PHAKPA Disease level (%) P6 at 16 ppm [1]: 23%
PHAKPA Disease level (%) P2 at 16 ppm [2]: 33%

CO/N=C(/C(=O)OC)c1cccc(C)c1CO/N=C(\C)C#Cc1cccc(Br)c1 [Example 30]
PHAKPA Disease level (%) P6 at 16 ppm [1]: 0%
PHAKPA Disease level (%) P2 at 16 ppm [2]: 0%

CNC(=O)/C(=N/OC)c1ccccc1CO/N=C(\C)C#Cc1ccccc1C(F)(F)F [Example 69]
PHAKPA Disease level (%) P6 at 16 ppm [1]: 2%
PHAKPA Disease level (%) P2 at 16 ppm [2]: 1%

CO/N=C(/C(=O)OC)c1ccccc1CO/N=C(\C)C#Cc1ccc(Cl)cc1C1CC1 [Example 91]
PHAKPA Disease level (%) P6 at 16 ppm [1]: 43%
PHAKPA Disease level (%) P2 at 16 ppm [2]: 53%

CNC(=O)/C(=N/OC)c1ccccc1CO/N=C(\C)C#Cc1ccc(OCC(F)(F)F)cc1 [Example 104]
PHAKPA Disease level (%) P6 at 16 ppm [1]: 32%
PHAKPA Disease level (%) P2 at 16 ppm [2]: 53%

CO/N=C(/C(=O)OC)c1ccccc1CO/N=C(\C)C#Cc1c(C2CC2)cccc1C(F)(F)F [Example 108]
PHAKPA Disease level (%) P6 at 16 ppm [1]: 87%
PHAKPA Disease level (%) P2 at 16 ppm [2]: 90%

CO/N=C(/C(=O)OC)c1ccccc1CO/N=C(\C)C#Cc1ccccc1Br [Example 46]
PHAKPA Disease level (%) P6 at 16 ppm [1]: 37%
PHAKPA Disease level (%) P2 at 16 ppm [2]: 47%

CNC(=O)/C(=N/OC)c1cccc(C)c1CO/N=C(\C)C#Cc1cccc(Cl)c1 [Example 77]
PHAKPA Disease level (%) P6 at 16 ppm [1]: 0%
PHAKPA Disease level (%) P2 at 16 ppm [2]: 0%

CO/N=C(/C(=O)OC)c1cccc(C)c1CO/N=C(\C)C#Cc1ccccc1Br [Example 45]
PHAKPA Disease level (%) P6 at 16 ppm [1]: 22%
PHAKPA Disease level (%) P2 at 16 ppm [2]: 25%

CNC(=O)/C(=N/OC)c1cccc(C)c1CO/N=C(\C)C#Cc1ccccc1Br [Example 47]
PHAKPA Disease level (%) P6 at 16 ppm [1]: 0%
PHAKPA Disease level (%) P2 at 16 ppm [2]: 0%

CO/N=C(/C(=O)OC)c1ccccc1CO/N=C(\C)C#Cc1ccc(Cl)cc1C(C)C [Example 109]
PHAKPA Disease level (%) P6 at 16 ppm [1]: 12%
PHAKPA Disease level (%) P2 at 16 ppm [2]: 11%

CO/N=C(/C(=O)OC)c1cccc(C)c1CO/N=C(\C)C#Cc1cccc(C)c1 [Example 42]
PHAKPA Disease level (%) P6 at 16 ppm [1]: 6%
PHAKPA Disease level (%) P2 at 16 ppm [2]: 3%

CO/N=C(/C(=O)OC)c1cccc(C)c1CO/N=C(\C)C#Cc1ccc(F)cc1 [Example 34]
PHAKPA Disease level (%) P6 at 16 ppm [1]: 0%
PHAKPA Disease level (%) P2 at 16 ppm [2]: 0%

CO/N=C(/C(=O)OC)c1ccccc1CO/N=C(\C)C#Cc1ccc(Br)cc1 [Example 54]
PHAKPA Disease level (%) P6 at 16 ppm [1]: 25%
PHAKPA Disease level (%) P2 at 16 ppm [2]: 22%

CNC(=O)/C(=N/OC)c1cccc(C)c1CO/N=C(\C)C#Cc1cccc(F)c1 [Example 38]
PHAKPA Disease level (%) P6 at 16 ppm [1]: 1%
PHAKPA Disease level (%) P2 at 16 ppm [2]: 0%

CO/N=C(/C(=O)OC)c1ccccc1CO/N=C(\C)C#Cc1ccccc1OC(F)(F)F [Example 10]
PHAKPA Disease level (%) P6 at 16 ppm [1]: 83%
PHAKPA Disease level (%) P2 at 16 ppm [2]: 70%

CO/N=C(/C(=O)OC)c1cccc(C)c1CO/N=C(\C)C#Cc1ccccc1C(F)(F)F [Example 66]
PHAKPA Disease level (%) P6 at 16 ppm [1]: 30%
PHAKPA Disease level (%) P2 at 16 ppm [2]: 17%

Reference: US20230303483A1, “USE OF STROBILURIN TYPE COMPOUNDS FOR COMBATING PHYTOPATHOGENIC FUNGI CONTAINING AN AMINO ACID SUBSTITUTION F129L IN THE MITOCHONDRIAL CYTOCHROME B PROTEIN CONFERRING RESISTANCE TO QO […]” (BASF SE, priority 2020, published 2023)
